Results as given in patent US8637467B2, “Pharmaceutical being used for treating cancer and fibrosis disease and the composition and uses thereof” (Wuxi MTLH Biotechnology Co., Ltd., priority 2008, dated 2014).
Where no end group is shown, it is not given here.

Legend:
Format in all cases: cell-based, Human
Settings in all cases: 72 h
[1] = test system: BEL-7404
Procedure: (§1) 2. Cell Lines • Human liver cancer cell line (SMMC-7721, BEL-7402, BEL-7402) were purchased from National Medical Academy of Sciences Tissue Bank and Chinese Academy of Sciences, Shanghai Cell line Research Institute.
(§2) 3. Cell Culture • All cell lines were incubated at 37C, 5% CO2 incubator with saturated humidity. Culture media was RPMI1640 media with 10% heat inactivated FBS, penicillin 100 u/ml, streptomycin 100 u/ml. After 48 hours media was changed. Cells were released with 0.25% trypsin and propagate. Cells used in the experiment were in log phase. Cell viability was determined using trypan blue staining.
(§3) 4. Methods • Take cells at log phase and release with 0.125% trypsin+0.01% EDTA and dilute cells to 2-4×10^4 cells/ml. Cells were placed in 96 well plate (180 ul/well), and were incubated at 37 C CO2 incubator for 24 hours. Media was changed, then peptide SEQ ID No:1 was added to the well (20 ul/well), incubate for 72 hours. Add MTT into 96 well plate (20 ul/well), and incubate for 4 hours. Media was removed, add DMSO (150 ul/well). The plate was shaken for 10 minutes. 7 concentration points (0.1 to 10 uM) was examined. Absorbance at 570 nm was measured for each well to calculate the IC50. IC50=(O.D. at well with no peptide−O.D. at well with peptide)/O.D. at well with no peptide

[2] = test system: SMMC-7721
Procedure: as §1, §2, §3

[3] = test system: BEL-7402
Procedure: as §1, §2, §3

Work on “SKVTKKYHEVLQLRPKTGVRGLHKSLTDVALEHHEECDCVCRGSTGG-OH (cysteines drawn unpaired) [Peptide SEQ ID NO:1]” yielded an IC50 [1] of 2330 nM, an IC50 [2] of 1250 nM and an IC50 [3] of 1780 nM.
